Numbered stars: 1 amine (or outer) side, 2 acyl side, 3 side chain; on linkers, the order of the positions; unused ones are H or OH. Bridge positions count the residues as written; N and C are the ends. Square brackets hold non-standard residues; d marks the D form. Side chains are listed from the residue outwards. Peptide text beside a SMILES is read from it. * marks the point of attachment. C18 diacid = O=C(O)CCCCCCCCCCCCCCCCC(=O)*; γGlu = O=C(O)[C@H](CCC(=O)[*:2])N[*:1]; αMeF = C[C@](N)(Cc1ccccc1)C(=O)O; Aib = CC(C)(N)C(=O)O
How the values were obtained:
lean rats = assay: Rat acute food intake study; format: in vivo, Sprague Dawley rats; conditions: 20 nmol/kg subcutaneously
Protocol: Male Sprague Dawley rats were obtained from Taconic Denmark, ApS at approximately 7 weeks of age. . . . Rats were implanted with a microchip for identification, housed 4/cage with enrichment, free access to food and water, and allowed one week acclimatisation while non-invasive characterization was performed. Rats were on a 12:12 light:dark cycle that switches at 1 pm:1 am. Food intake was monitored via the HM2 system (Lafayette Instrument) that allows for monitoring in a home cage. As each rat enters an access tunnel to feed, an IR beam is broken, and the implanted microchip is read. Resulting changes to food weight is then assigned to the specific animal. Social order has shown no impact to overall feeding patterns and amounts.
Rats were sorted into groups based on Day-1 body weight and 24-hour accumulated food intake (n=7 per group). On Day 0 rats were weighed, then fasted for 6 hours. Thirty (30) minutes prior to the reintroduction of food, rats were dosed subcutaneously (5 ml/kg) with 20 nmol/kg of test compound or 60 nmol/kg peptide 1 (pramlintide) diluted in an appropriate vehicle, after which food was returned, and lights went out. Automated food intake was monitored for the following 3 days, and rats were weighed once per day.
Food intake per rat was batched into 1-hour intervals and integrated into Gubra's GubraView data management system. Discrete food intake data was exported into MS Excel from which cumulative food intake data was generated. Cumulative food intake data was then transposed into GraphPad Prism (v8.0.1) for analysis of dark period feeding

[1] = Thioflavin T fibrillation assay; format: physicochemical; conditions: 1 mg/mL in 25 mM sodium acetate buffer pH 4.0, 37° C., 6 days, orbital shaking; >144 h = no increase
Method in brief: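 Peptides at 1 mg/mL in 25 mM sodium acetate pH 4.0 were mixed with ThT (0.25 mM stock) and held 6 days at 37 °C with intermittent orbital shaking at 500–750 rpm. Fluorescence (ex 444/em 480 nm) was read every 30 min, with buffer baseline correction and 5 replicates. Value: mean time to a detectable fluorescence increase.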

Structure (SMILES): CC[C@H](C)[C@H](NC(=O)[C@@H]1CCCN1C(=O)CNC(=O)[C@](C)(Cc1ccccc1)NC(=O)[C@H](CC(N)=O)NC(=O)[C@H](CC(N)=O)NC(=O)[C@H](CO)NC(=O)[C@H](CO)NC(=O)[C@H](Cc1c[nH]cn1)NC(=O)[C@H](CCCNC(=N)N)NC(=O)[C@H](CC(C)C)NC(=O)[C@H](Cc1ccccc1)NC(=O)[C@H](CCC(=O)O)NC(=O)[C@H](C)NC(=O)[C@H](CC(C)C)NC(=O)[C@H](CCCNC(=N)N)NC(=O)[C@H](CCC(N)=O)NC(=O)[C@@H](NC(=O)[C@H](C)NC(=O)[C@@H]1CSSC[C@H](NC(=O)[C@H](CCCCN)NC(=O)[C@@H](N)CCCCNC(=O)CC[C@H](NC(=O)CCCCCCCCCCCCCCCCC(=O)O)C(=O)O)C(=O)N[C@@H](CC(N)=O)C(=O)N[C@@H]([C@@H](C)O)C(=O)N[C@@H](C)C(=O)N[C@@H]([C@@H](C)O)C(=O)N1)[C@@H](C)O)C(=O)N[C@@H](CC(C)C)C(=O)N1CCC[C@H]1C(=O)N1CCC[C@H]1C(=O)N[C@H](C(=O)N[C@@H](CC(N)=O)C(=O)N[C@H](C(=O)NCC(=O)N[C@@H](CO)C(=O)N[C@@H](CC(N)=O)C(=O)N[C@H](C(=O)N[C@@H](Cc1ccc(O)cc1)C(N)=O)[C@@H](C)O)C(C)C)[C@@H](C)O [Peptide 12, K(γE-C18diacid)K[CNTATC]ATQRLAEFLRHSSNN(αMePhe)GPILPPTNVGSNTY-amide] (H-K([γGlu-C18 diacid])KCNTATCATQRLAEFLRHSSNN[αMeF]GPILPPTNVGSNTY-NH2; disulfide 3-8; N-terminus assumed)
- Cummulative food intake (% vehicle treated intake) At 12 h (lean rats): 9.4 % vehicle treated intake
- Cummulative food intake (% vehicle treated intake) At 24 h (lean rats): 7.5 % vehicle treated intake
- Time taken to detect increase in fluorescence intensity [1]: >144 h

Structure (SMILES): CC[C@H](C)[C@H](NC(=O)[C@@H]1CCCN1C(=O)CNC(=O)[C@H](Cc1ccccc1)NC(=O)[C@H](CC(N)=O)NC(=O)C(C)(C)NC(=O)[C@H](CO)NC(=O)[C@H](CO)NC(=O)[C@H](Cc1c[nH]cn1)NC(=O)[C@@H](NC(=O)[C@H](CC(C)C)NC(=O)[C@H](Cc1ccccc1)NC(=O)[C@H](CC(N)=O)NC(=O)[C@H](C)NC(=O)[C@H](CC(C)C)NC(=O)[C@H](CCCNC(=N)N)NC(=O)[C@H](CCC(N)=O)NC(=O)[C@@H](NC(=O)[C@H](C)NC(=O)[C@@H]1CSSC[C@H](NC(=O)[C@H](CCCCN)NC(=O)[C@@H](N)CCCCNC(=O)CC[C@H](NC(=O)CCCCCCCCCCCCCCCCC(=O)O)C(=O)O)C(=O)N[C@@H](CC(N)=O)C(=O)N[C@@H]([C@@H](C)O)C(=O)N[C@@H](C)C(=O)N[C@@H]([C@@H](C)O)C(=O)N1)[C@@H](C)O)C(C)C)C(=O)N[C@@H](CC(C)C)C(=O)N1CCC[C@H]1C(=O)N1CCC[C@H]1C(=O)N[C@H](C(=O)N[C@@H](CC(N)=O)C(=O)N[C@H](C(=O)NCC(=O)N[C@@H](CO)C(=O)N[C@@H](CC(N)=O)C(=O)N[C@H](C(=O)N[C@@H](Cc1ccc(O)cc1)C(N)=O)[C@@H](C)O)C(C)C)[C@@H](C)O [Peptide 35, K(γE-C18diacid)K[CNTATC]ATQRLANFLVHSS(Aib)NFGPILPPTNVGSNTY-amide] (H-K([γGlu-C18 diacid])KCNTATCATQRLANFLVHSS[Aib]NFGPILPPTNVGSNTY-NH2; disulfide 3-8; N-terminus assumed)
- Cummulative food intake (% vehicle treated intake) At 48 h (lean rats; at 48 h): 72 % vehicle treated intake

Structure (SMILES): CC[C@H](C)[C@H](NC(=O)[C@@H]1CCCN1C(=O)CNC(=O)[C@H](Cc1ccccc1)NC(=O)[C@H](CC(N)=O)NC(=O)C(C)(C)NC(=O)[C@H](CO)NC(=O)[C@H](CO)NC(=O)[C@H](Cc1c[nH]cn1)NC(=O)[C@@H](NC(=O)[C@H](CC(C)C)NC(=O)[C@H](Cc1ccccc1)NC(=O)[C@H](CCC(=O)O)NC(=O)[C@H](C)NC(=O)[C@H](CC(C)C)NC(=O)[C@H](CCCNC(=N)N)NC(=O)[C@H](CCC(N)=O)NC(=O)[C@@H](NC(=O)[C@H](C)NC(=O)[C@@H]1CSSC[C@H](NC(=O)[C@H](CCCCN)NC(=O)[C@@H](N)CCCCNC(=O)CC[C@H](NC(=O)CCCCCCCCCCCCCCCCC(=O)O)C(=O)O)C(=O)N[C@@H](CC(N)=O)C(=O)N[C@@H]([C@@H](C)O)C(=O)N[C@@H](C)C(=O)N[C@@H]([C@@H](C)O)C(=O)N1)[C@@H](C)O)C(C)C)C(=O)N[C@@H](CC(C)C)C(=O)N1CCC[C@H]1C(=O)N1CCC[C@H]1C(=O)N[C@H](C(=O)N[C@@H](CC(N)=O)C(=O)N[C@H](C(=O)NCC(=O)N[C@@H](CO)C(=O)N[C@@H](CC(N)=O)C(=O)N[C@H](C(=O)N[C@@H](Cc1ccc(O)cc1)C(N)=O)[C@@H](C)O)C(C)C)[C@@H](C)O [Peptide 38, K(γE-C18diacid)K[CNTATC]ATQRLAEFLVHSS(Aib)NFGPILPPTNVGSNTY-amide] (H-K([γGlu-C18 diacid])KCNTATCATQRLAEFLVHSS[Aib]NFGPILPPTNVGSNTY-NH2; disulfide 3-8; N-terminus assumed)
- Cummulative food intake (% vehicle treated intake) At 12 h (lean rats): 6.9 % vehicle treated intake
- Cummulative food intake (% vehicle treated intake) At 24 h (lean rats): 5.5 % vehicle treated intake

Structure (SMILES): CC[C@H](C)[C@H](NC(=O)[C@@H]1CCCN1C(=O)CNC(=O)[C@H](Cc1ccccc1)NC(=O)[C@H](CC(N)=O)NC(=O)[C@H](CC(N)=O)NC(=O)[C@H](CO)NC(=O)[C@H](CO)NC(=O)[C@H](Cc1c[nH]cn1)NC(=O)C(C)(C)NC(=O)[C@H](CC(C)C)NC(=O)[C@H](Cc1ccccc1)NC(=O)[C@H](CC(N)=O)NC(=O)[C@H](C)NC(=O)[C@H](CC(C)C)NC(=O)[C@H](CCCNC(=N)N)NC(=O)[C@H](CCC(N)=O)NC(=O)[C@@H](NC(=O)[C@H](C)NC(=O)[C@@H]1CSSC[C@H](NC(=O)[C@@H](N)CCCCNC(=O)CC[C@H](NC(=O)CCCCCCCCCCCCCCCCC(=O)O)C(=O)O)C(=O)N[C@@H](CC(N)=O)C(=O)N[C@@H]([C@@H](C)O)C(=O)N[C@@H](C)C(=O)N[C@@H]([C@@H](C)O)C(=O)N1)[C@@H](C)O)C(=O)N[C@@H](CC(C)C)C(=O)N1CCC[C@H]1C(=O)N1CCC[C@H]1C(=O)N[C@H](C(=O)N[C@@H](CC(N)=O)C(=O)N[C@H](C(=O)NCC(=O)N[C@@H](CO)C(=O)N[C@@H](CC(N)=O)C(=O)N[C@H](C(=O)N[C@@H](Cc1ccc(O)cc1)C(N)=O)[C@@H](C)O)C(C)C)[C@@H](C)O [Peptide 149] (H-K([γGlu-C18 diacid])CNTATCATQRLANFL[Aib]HSSNNFGPILPPTNVGSNTY-NH2; disulfide 2-7; N-terminus assumed)
- Cummulative food intake (% vehicle treated intake) At 12 h (lean rats): 31 % vehicle treated intake

Source: patent publication US12371464B2, “Polypeptides and uses thereof” (MEDIMMUNE LIMITED, priority 2020, dated 2025)
